Assay results taken from the NIST ThermoML archive (doi:10.1021/je200673a).

Assay: molar heat capacity at constant pressure
Details: 101.33 kPa, Crystal, Vacuum adiabatic calorimetry

C(#Cc1ccccc1)c1ccccc1 [1,2-diphenylethyne]
Details	molar heat capacity at constant pressure [J/K/mol]
5 K	0.4461
7.76 K	1.66
8.24 K	1.997
8.4 K	2.155
8.56 K	2.246
8.71 K	2.325
8.87 K	2.454
9.02 K	2.473
9.17 K	2.661
9.32 K	2.644
9.46 K	2.813
9.61 K	3.003
9.75 K	3.203
9.9 K	3.352
10 K	3.39
10.04 K	3.408
10.23 K	3.58
10.46 K	3.861
10.7 K	4.163
10.94 K	4.495
11.19 K	4.753
11.43 K	4.952
11.67 K	5.282
11.92 K	5.556
12.16 K	5.878
12.4 K	6.207
12.65 K	6.564
12.9 K	6.777
13.14 K	7.156
13.39 K	7.478
13.65 K	7.835
13.9 K	8.246
14.15 K	8.579
14.4 K	8.944
14.66 K	9.243
14.91 K	9.637
15.16 K	9.985
15.42 K	10.37
15.67 K	10.79
15.93 K	11.12
16.19 K	11.5
16.44 K	11.93
16.7 K	12.28
16.96 K	12.67
17.22 K	13.04
17.48 K	13.53
17.74 K	13.89
18 K	14.4
18.26 K	14.75
18.52 K	15.13
18.78 K	15.54
19.05 K	15.99
19.31 K	16.45
19.57 K	16.8
19.83 K	17.2
20 K	17.46
20.1 K	17.57
20.52 K	18.22
21.06 K	19.09
21.59 K	19.97
22.13 K	20.72
22.66 K	21.52
23.2 K	22.37
23.74 K	23.22
24.28 K	24.1
24.82 K	25
25 K	25.27
25.36 K	25.89
25.9 K	26.74
26.44 K	27.46
26.99 K	28.2
27.53 K	29.01
28.08 K	29.84
28.62 K	30.62
29.17 K	31.47
29.72 K	32.26
30 K	32.68
30.27 K	33.13
30.82 K	33.87
31.36 K	34.72
31.91 K	35.51
32.46 K	36.31
33.02 K	37.01
33.57 K	37.75
34.12 K	38.45
34.67 K	39.14
35 K	39.59
35.23 K	39.87
35.78 K	40.61
36.33 K	41.23
36.89 K	41.86
37.44 K	42.57
38 K	43.15
38.56 K	43.79
39.11 K	44.41
39.67 K	45.07
40 K	45.41
40.22 K	45.63
40.78 K	46.31
41.33 K	46.9
41.89 K	47.45
42.45 K	48.18
43 K	48.73
43.56 K	49.34
44.12 K	49.91
44.67 K	50.46
45 K	50.83
45.23 K	51.09
45.79 K	51.68
46.35 K	52.17
46.91 K	52.71
47.47 K	53.2
48.03 K	53.68
48.59 K	54.18
49.15 K	54.59
49.71 K	55.12
